Molecules are shown by their SMILES. Values joined by “and” are separate entries in the source; they are usually repeats but may differ in a detail not shown here. Identical values can stand only once.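 Step 1: Grow cells in 96-well plates. Step 2: Expose to compound for 48 hours at 5 concentrations. Step 3: Interpolate endpoints linearly; if unreached, use highest concentration. Here, GI50 denotes the concentration required for 50% inhibition of growth. TGI denotes the concentration required for complete inhibition of growth.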

This is an account of results in PubChem BioAssay (NCI).

Among the test systems are IGROV1 ovarian; SF-539 CNS; OVCAR-4 ovarian; SW-620 colon; T-47D breast; A498 renal; K-562 leukemia; BT-549 breast; LOX IMVI melanoma; HOP-62 NSCLC.
Test in all cases: inhibition of tumour cell growth, NCI panel, 48 h

As for `O=C(Nc1cccc(Cl)c1)c1cc2ccccc2cc1O`, the GI50 in the assay on IGROV1 ovarian was 2.71 µM and 2.06 µM; with SF-539 CNS it was 3.17 µM and 0.577 µM; in the assay with OVCAR-4 ovarian, 3.39 µM and 2.32 µM; with SW-620 colon, 3.14 µM and 3.1 µM; in the assay on T-47D breast, 1.88 µM and 1.73 µM; in the assay on A498 renal, 0.742 µM and 1.08 µM. Besides, the GI50 is 1.38 µM and 0.888 µM in the assay with K-562 leukemia; 2.42 µM and 1.84 µM in the assay on BT-549 breast; 3.73 µM and 1.75 µM in the assay on LOX IMVI melanoma; 2.8 µM and 2.47 µM with HOP-62 NSCLC. Further, the TGI in the assay on IGROV1 ovarian is above 100 µM; with SF-539 CNS it was 28.8 µM and > 100 µM; in the assay with OVCAR-4 ovarian, above 100 µM; with SW-620 colon, above 100 µM; in the assay with T-47D breast it was 8.92 µM and 6.82 µM; with A498 renal, 4.34 µM and 4.64 µM. Further, the TGI was above 100 µM with K-562 leukemia; 7.66 µM and 9.29 µM in the assay with BT-549 breast; above 100 µM in the assay on LOX IMVI melanoma.
Take `O=C(CN(C1CCCCC1)C1CCCCC1)Nc1ccc(S(=O)(=O)c2ccc(NC(=O)CN(C3CCCCC3)C3CCCCC3)cc2)cc1`: the GI50 in the assay with IGROV1 ovarian is 0.421 µM; in the assay on SF-539 CNS, 0.37 µM; in the assay with OVCAR-4 ovarian it was 0.942 µM; with SW-620 colon, 0.228 µM; with T-47D breast it was 1.15 µM; in the assay with A498 renal, 11.4 µM. For the same compound, the GI50 in the assay on K-562 leukemia was 0.277 µM; in the assay on BT-549 breast, 0.506 µM; in the assay on LOX IMVI melanoma it was 0.239 µM; in the assay on HOP-62 NSCLC, 1.2 µM. In addition, the TGI with IGROV1 ovarian was found to be 1.6 µM; in the assay on SF-539 CNS it was 1.46 µM; in the assay with OVCAR-4 ovarian, 2.58 µM; in the assay on SW-620 colon, 0.65 µM; in the assay on T-47D breast it was 3.74 µM; with A498 renal, 27.9 µM. Besides, the TGI came to 1.38 µM with K-562 leukemia, 1.91 µM in the assay with BT-549 breast, 0.845 µM with LOX IMVI melanoma and 3.56 µM with HOP-62 NSCLC.
For the compound `Cc1cc(NC(=O)c2ccc(C)c(Nc3nccc(-c4cccnc4)n3)c2)cc(-n2cnc(C)c2)c1`, the GI50 in the assay on IGROV1 ovarian is 3.93 µM; with SF-539 CNS, 2.09 µM; with OVCAR-4 ovarian it was 0.999 µM; in the assay with SW-620 colon, 4.7 µM; in the assay on T-47D breast, 1.34 µM; in the assay with A498 renal it was 1.86 µM. Also, the GI50 in the assay with K-562 leukemia is 0.0915 µM; in the assay on BT-549 breast it was 0.159 µM; in the assay with LOX IMVI melanoma it was 4.09 µM; with HOP-62 NSCLC it was 1.68 µM. Further, the TGI was determined as 13.5 µM in the assay with IGROV1 ovarian; 9.27 µM with SF-539 CNS; 2.19 µM with OVCAR-4 ovarian; 26.4 µM in the assay on SW-620 colon; 3.77 µM in the assay on T-47D breast; 7.93 µM in the assay on A498 renal. Further, the TGI was found to be 4.03 µM in the assay on K-562 leukemia, 9.98 µM with BT-549 breast, 13 µM with LOX IMVI melanoma and 6.7 µM with HOP-62 NSCLC.
For `CN(C)c1ccc2nc3ccc(=O)cc-3sc2c1`, the GI50 is 2.48 µM with IGROV1 ovarian; 0.287 µM in the assay on SF-539 CNS; 1.41 µM in the assay on OVCAR-4 ovarian; 1.36 µM with SW-620 colon; 1 µM in the assay with T-47D breast; 11 µM with A498 renal. In addition, the GI50 is 0.919 µM with K-562 leukemia, 0.712 µM in the assay on BT-549 breast, 0.633 µM with LOX IMVI melanoma and 0.763 µM in the assay with HOP-62 NSCLC. Further, the TGI was above 54.5 µM in the assay with IGROV1 ovarian; 36.5 µM in the assay with OVCAR-4 ovarian; above 100 µM in the assay on SW-620 colon; above 100 µM in the assay with T-47D breast; above 92.8 µM with A498 renal; above 100 µM in the assay on K-562 leukemia. In addition, the TGI in the assay with BT-549 breast is above 100 µM; in the assay with LOX IMVI melanoma it was above 63.8 µM; in the assay on HOP-62 NSCLC, above 56.9 µM.
As for `COC(COC(=O)N1CCN(C=O)CC1)C1=C(N2CC2)C(=O)C(C)=C(N2CC2)C1=O` (stereo not drawn), the TGI was determined as 1.38 µM with IGROV1 ovarian; 0.342 µM with SF-539 CNS; 2.13 µM in the assay with OVCAR-4 ovarian; 1.59 µM in the assay on SW-620 colon; 22.4 µM with T-47D breast; 4.02 µM with A498 renal. The TGI in the assay with K-562 leukemia is above 100 µM; with BT-549 breast it was 1.97 µM; in the assay with LOX IMVI melanoma, 0.613 µM; in the assay with HOP-62 NSCLC, 6.57 µM.
On to `NC(=O)C(=CNc1nc(-c2ccc(Cl)c(Cl)c2)cs1)C(N)=O`, for which the GI50 was 32.6 µM with IGROV1 ovarian; 46.4 µM in the assay on SF-539 CNS; 62.4 µM with OVCAR-4 ovarian; above 100 µM in the assay on SW-620 colon; above 100 µM with T-47D breast; above 100 µM in the assay with A498 renal. The GI50 is 75.8 µM with K-562 leukemia, above 100 µM in the assay with BT-549 breast, above 100 µM in the assay on LOX IMVI melanoma and above 100 µM in the assay on HOP-62 NSCLC. The TGI with IGROV1 ovarian, in the assay on SF-539 CNS, in the assay with OVCAR-4 ovarian, in the assay with SW-620 colon, with T-47D breast and with A498 renal was above 100 µM throughout. Also, the TGI in the assay with K-562 leukemia, with BT-549 breast, in the assay with LOX IMVI melanoma and with HOP-62 NSCLC was above 100 µM each time.
On to `Cc1sc2nc(NCCc3c[nH]c4ccc(Cl)cc34)[nH]c(=O)c2c1C`, for which the GI50 was 3.12 µM in the assay on IGROV1 ovarian; 3.37 µM with SF-539 CNS; 3.27 µM in the assay with OVCAR-4 ovarian; 2.64 µM in the assay with SW-620 colon; 2.98 µM with T-47D breast; 1.8 µM in the assay on A498 renal. The GI50 in the assay on K-562 leukemia is 3.03 µM; with BT-549 breast, 2.55 µM; in the assay with LOX IMVI melanoma, 1.87 µM; with HOP-62 NSCLC, 2.52 µM. Moreover, the TGI with IGROV1 ovarian worked out at 13.1 µM; in the assay with SF-539 CNS, 13.4 µM; with OVCAR-4 ovarian, 13.4 µM; in the assay on SW-620 colon, 10.9 µM; in the assay with T-47D breast, 12.7 µM; in the assay on A498 renal it was 4.15 µM. Also, the TGI with K-562 leukemia amounted to 10.7 µM; in the assay with BT-549 breast, 9.95 µM; in the assay with LOX IMVI melanoma it was 3.68 µM; in the assay on HOP-62 NSCLC, 10.4 µM.
As to `CCN(CC)CC(C)(C)C(=O)/C=C/c1ccc(Cl)c(Cl)c1`, the GI50 is 2.01 µM with IGROV1 ovarian; 1.85 µM in the assay on SF-539 CNS; 1.63 µM in the assay with OVCAR-4 ovarian; 1.76 µM in the assay with SW-620 colon; 1.52 µM with T-47D breast; 1.63 µM with A498 renal. Also, the GI50 was 1.1 µM with K-562 leukemia, 1.72 µM with BT-549 breast, 0.774 µM with LOX IMVI melanoma and 1.75 µM with HOP-62 NSCLC. Moreover, the TGI amounted to 4.95 µM with IGROV1 ovarian; 3.54 µM in the assay with SF-539 CNS; 3.2 µM in the assay on OVCAR-4 ovarian; 4.21 µM in the assay on SW-620 colon; 4.03 µM with T-47D breast; 3.55 µM in the assay with A498 renal. Also, the TGI turned out to be 6.29 µM in the assay on K-562 leukemia, 3.12 µM in the assay on BT-549 breast, 2.03 µM in the assay on LOX IMVI melanoma and 3.29 µM in the assay with HOP-62 NSCLC.
